Values quoted from earlier work as cited in paper PMC11208559 (Scientific Reports, 2024).

Settings: cited from earlier work

C=CCNC1=C2C[C@@H](C)C[C@H](OC)[C@H](O)[C@@H](C)/C=C(\C)[C@H](OC(N)=O)[C@@H](OC)/C=C\C=C(/C)C(=O)NC(=CC1=O)C2=O [17-AAG]
tolerability in clinical trials: liver toxicity
